Values of other authors in patent US20210145763A1, “LOW THC HEMP EXTRACT AND METHOD OF TREATMENT OR PREVENTION OF AN EYE DISEASE” (EYE CO PTY LTD, priority 2018, published 2021).

Tests used:
[1] = in vivo
[2] = target: T1, mineralocorticoid receptor (Homo sapiens, UniProt P08235); conditions: relative potency, hydrocortisone = 1
T1 sequence (P08235 1-984): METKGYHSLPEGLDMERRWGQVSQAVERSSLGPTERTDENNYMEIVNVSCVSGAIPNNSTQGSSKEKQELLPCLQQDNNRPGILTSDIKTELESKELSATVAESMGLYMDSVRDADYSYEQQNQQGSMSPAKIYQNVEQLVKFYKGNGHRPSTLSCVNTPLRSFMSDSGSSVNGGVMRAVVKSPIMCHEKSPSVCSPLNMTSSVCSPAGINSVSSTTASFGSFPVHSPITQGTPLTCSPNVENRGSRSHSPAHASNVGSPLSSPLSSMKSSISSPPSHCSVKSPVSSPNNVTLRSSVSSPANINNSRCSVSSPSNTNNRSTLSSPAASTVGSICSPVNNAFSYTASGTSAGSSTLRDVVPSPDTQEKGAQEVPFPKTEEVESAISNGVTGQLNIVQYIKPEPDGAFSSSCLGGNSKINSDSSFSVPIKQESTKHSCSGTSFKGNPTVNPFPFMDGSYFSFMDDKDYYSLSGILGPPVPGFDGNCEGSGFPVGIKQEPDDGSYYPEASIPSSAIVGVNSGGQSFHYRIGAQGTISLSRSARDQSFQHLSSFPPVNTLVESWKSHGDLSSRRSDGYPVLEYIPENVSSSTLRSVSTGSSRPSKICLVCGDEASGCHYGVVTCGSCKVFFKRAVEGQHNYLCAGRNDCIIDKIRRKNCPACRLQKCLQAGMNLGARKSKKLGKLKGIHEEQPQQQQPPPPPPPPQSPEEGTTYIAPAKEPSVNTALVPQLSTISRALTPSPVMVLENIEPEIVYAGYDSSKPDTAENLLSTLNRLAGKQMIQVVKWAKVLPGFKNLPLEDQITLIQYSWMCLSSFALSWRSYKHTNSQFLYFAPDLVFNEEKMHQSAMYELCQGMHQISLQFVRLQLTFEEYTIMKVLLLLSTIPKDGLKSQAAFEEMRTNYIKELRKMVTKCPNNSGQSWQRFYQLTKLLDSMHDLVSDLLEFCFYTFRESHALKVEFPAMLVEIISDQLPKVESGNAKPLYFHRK

glucocorticoid receptor = target: T2, glucocorticoid receptor (Homo sapiens, UniProt P04150); conditions: relative potency, hydrocortisone = 1
T2 sequence (P04150 1-777): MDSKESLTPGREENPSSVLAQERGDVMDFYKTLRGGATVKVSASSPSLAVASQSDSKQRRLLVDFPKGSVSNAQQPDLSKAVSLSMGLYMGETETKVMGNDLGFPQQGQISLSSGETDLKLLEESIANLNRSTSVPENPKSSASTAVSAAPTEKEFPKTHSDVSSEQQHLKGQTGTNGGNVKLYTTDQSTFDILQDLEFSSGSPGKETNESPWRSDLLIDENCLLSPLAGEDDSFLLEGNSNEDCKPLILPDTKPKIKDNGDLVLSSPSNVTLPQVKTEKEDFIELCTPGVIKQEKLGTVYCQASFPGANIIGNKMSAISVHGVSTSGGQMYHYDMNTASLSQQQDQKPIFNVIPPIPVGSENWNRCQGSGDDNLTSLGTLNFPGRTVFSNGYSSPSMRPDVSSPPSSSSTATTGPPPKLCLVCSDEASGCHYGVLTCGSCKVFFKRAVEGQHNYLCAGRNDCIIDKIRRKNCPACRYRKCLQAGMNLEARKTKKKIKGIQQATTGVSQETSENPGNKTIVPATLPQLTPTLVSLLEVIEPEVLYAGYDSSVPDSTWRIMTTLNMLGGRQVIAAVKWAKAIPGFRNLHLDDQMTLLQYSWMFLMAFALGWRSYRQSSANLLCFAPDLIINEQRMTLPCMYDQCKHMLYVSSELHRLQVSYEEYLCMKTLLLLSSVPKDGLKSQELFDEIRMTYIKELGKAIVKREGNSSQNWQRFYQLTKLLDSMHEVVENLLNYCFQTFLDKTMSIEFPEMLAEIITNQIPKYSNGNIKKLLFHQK

Duration of action (t1/2 in hours) [1] | MR potency [2] | GR potency (glucocorticoid receptor) | Structure (SMILES)
16 to 36 h | 0.8 | 4 | C[C@]12C=CC(=O)C=C1CC[C@@H]1[C@@H]2[C@@H](O)C[C@@]2(C)[C@H]1CC[C@]2(O)C(=O)CO [Prednisolone]
– | 200 | – | CC(=O)OCC(=O)[C@@]1(O)CC[C@H]2[C@@H]3CCC4=CC(=O)CC[C@]4(C)[C@@]3(F)[C@@H](O)C[C@@]21C [Fludrocortisone acetate]
– | 20 | 0 | CC(=O)OCC(=O)[C@H]1CC[C@H]2[C@@H]3CCC4=CC(=O)CC[C@]4(C)[C@H]3CC[C@]12C [Deoxycorticosterone acetate (DOCA), Deoxycorticosterone acetate]
16 to 36 h | 0.8 | – | C[C@]12C=CC(=O)C=C1CC[C@@H]1[C@@H]2C(=O)C[C@@]2(C)[C@H]1CC[C@]2(O)C(=O)CO [Prednisone]
12 to 36 h | 0 | 5 | C[C@]12C=CC(=O)C=C1CC[C@H]1[C@@H]3C[C@@H](O)[C@](O)(C(=O)CO)[C@@]3(C)C[C@H](O)[C@@]12F [Triamcinolone]

Further lines, the compound ahead of its results:

Structure (SMILES) | Duration of action (t1/2 in hours) [1] | MR potency [2] | GR potency (glucocorticoid receptor)
C[C@]12CCC(=O)C=C1CC[C@@H]1[C@@H]2[C@@H](O)C[C@]2(C=O)[C@@H](C(=O)CO)CC[C@@H]12 [Aldosterone] | – | 200-1000 | 0.3
C[C@]12CCC(=O)C=C1CC[C@@H]1[C@@H]2[C@@H](O)C[C@@]2(C)[C@H]1CC[C@]2(O)C(=O)CO [Hydrocortisone (cortisol), Hydrocortisone] | – | 1 | 1
C[C@H]1C[C@@H]2[C@H]([C@@H](O)C[C@@]3(C)[C@H]2CC[C@]3(O)C(=O)CO)[C@@]2(C)C=CC(=O)C=C12 [Methylprednisolone] | 18 to 40 h | – | –
C[C@]12CCC(=O)C=C1CC[C@@H]1[C@@H]2C(=O)C[C@@]2(C)[C@H]1CC[C@]2(O)C(=O)CO [Cortisone] | – | 0.8 | 0.8
